Assays:
[1] = target: T1, AXL (fusion protein of amino acids 464-885 of the intracellular domain of human AXL with glutathione transferase) (Homo sapiens, UniProt P30530); experiment: Cell-Free Axl Kinase Inhibitory Activity
T1 sequence (P30530 464-885 isoform P30530-2): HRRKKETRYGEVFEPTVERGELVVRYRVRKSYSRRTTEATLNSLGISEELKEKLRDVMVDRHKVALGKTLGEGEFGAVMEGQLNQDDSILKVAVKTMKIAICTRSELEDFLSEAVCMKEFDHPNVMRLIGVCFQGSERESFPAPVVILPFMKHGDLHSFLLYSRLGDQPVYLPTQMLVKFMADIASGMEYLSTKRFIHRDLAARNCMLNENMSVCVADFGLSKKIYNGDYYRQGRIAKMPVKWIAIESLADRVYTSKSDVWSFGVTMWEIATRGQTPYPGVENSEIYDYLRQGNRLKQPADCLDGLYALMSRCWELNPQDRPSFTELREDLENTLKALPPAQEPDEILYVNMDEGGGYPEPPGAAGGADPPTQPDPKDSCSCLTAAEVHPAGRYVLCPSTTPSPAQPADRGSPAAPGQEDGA

[2] = target: T2, phosphorylated Axl (pAxl Y702) in NCI-H1299 cells (Homo sapiens, UniProt P30530); experiment: Intracellular Axl Phosphorylation Inhibitory Activity (pAxl, NCI-H1299 cells); format: cell-based; conditions: 1 h compound incubation, GAS6 stimulation 10 minutes, pAxl (Y702) level
T2 construct: endogenous in cells; host or cells: NCI-H1299
T2 sequence (P30530 26-894): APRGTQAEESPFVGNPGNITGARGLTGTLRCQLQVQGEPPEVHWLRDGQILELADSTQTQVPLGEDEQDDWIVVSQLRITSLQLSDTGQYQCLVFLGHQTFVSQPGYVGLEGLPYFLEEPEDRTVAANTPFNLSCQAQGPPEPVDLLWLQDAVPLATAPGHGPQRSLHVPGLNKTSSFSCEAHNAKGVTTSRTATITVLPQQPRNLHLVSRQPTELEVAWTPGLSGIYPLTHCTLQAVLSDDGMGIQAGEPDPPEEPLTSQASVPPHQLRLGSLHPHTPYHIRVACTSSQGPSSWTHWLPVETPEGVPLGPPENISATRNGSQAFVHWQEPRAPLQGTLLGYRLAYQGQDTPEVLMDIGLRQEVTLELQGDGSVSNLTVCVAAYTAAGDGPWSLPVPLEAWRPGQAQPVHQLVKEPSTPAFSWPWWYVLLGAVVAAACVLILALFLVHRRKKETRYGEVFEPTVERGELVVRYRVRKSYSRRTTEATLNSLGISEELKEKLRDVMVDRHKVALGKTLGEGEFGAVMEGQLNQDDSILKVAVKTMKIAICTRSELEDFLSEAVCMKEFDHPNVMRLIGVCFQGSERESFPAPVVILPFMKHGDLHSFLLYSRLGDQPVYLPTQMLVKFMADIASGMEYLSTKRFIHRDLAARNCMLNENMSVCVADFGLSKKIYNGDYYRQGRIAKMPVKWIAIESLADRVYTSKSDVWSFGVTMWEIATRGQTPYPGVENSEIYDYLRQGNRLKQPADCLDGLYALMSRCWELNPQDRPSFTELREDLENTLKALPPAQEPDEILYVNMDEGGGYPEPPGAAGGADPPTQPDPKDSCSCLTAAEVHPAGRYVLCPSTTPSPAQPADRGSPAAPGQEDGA
Method: A phosphorylated Axl (hereinafter pAxl) inhibitory test was performed using the human non-small-cell lung cancer-derived cell strain NCI-H1299.
On the following day, the medium was removed, 100 μl of fresh medium were added, and the cells were cultured at 37° C. in the presence of 5% CO2 for one day.
The test compound was dissolved in DMSO and diluted with medium to prepare a sample solution (DMSO concentration: 2%). Twenty-five microliters of medium or sample-added medium was added to each well (DMSO concentration: 0.4%), and the plate was incubated at 37° C. in the presence of 5% CO2 for one hour.
After stirring, the plate was incubated at 37° C. in the presence of 5% CO2 for 10 minutes.
The supernatant was discarded, and 0.1 ml of a 37% formalin solution diluted to 4% with phosphate buffer (PBS) (hereinafter “4% formalin solution”) was added to each well. The plate was allowed to stand at room temperature for 10 minutes.
Next, the 4% formalin solution was discarded, and 0.2 ml of a solution of Triton X-100 diluted to 0.1% with PBS (hereinafter “wash buffer”) was added. The wash buffer was discarded using a decanter, and excess moisture in the plate was removed on a paper towel.
Subsequently, […] NaN3 and H2O2 were added to the wash buffer at 0.1% (hereinafter “quenching buffer”), and 0.1 ml of the quenching buffer was added to each well. The plate was allowed to stand at room temperature for 15 minutes.
The quenching buffer was discarded, and 0.2 ml of wash buffer was added. The wash buffer was discarded using a decanter, and excess moisture in the plate was removed on a paper towel.
Skim milk (Nacalai Tesque) was added to the wash buffer at a final concentration of 5% (hereinafter “blocking buffer”), and 0.25 ml of the blocking buffer was added to each well. The plate was allowed to stand at room temperature for one hour.
After light stirring, the plate was incubated for 20 minutes. Luminescence was then measured by ARVO sx (PerkinElmer), and the pAxl (Y702) level was measured.
pAxl Inhibitory activity was determined by the following formula. Inhibition %=100−(A−B)×100/(T−B)
A: Measurement of the test compound
T: Luminescence value of the reaction solution with a compound not added

Row | SMILES | IC50 [1] | IC50 [2]
1 | COc1ccc(-c2cnc(N)c(-c3ccc(NC(=O)c4cn(CCOC5CCCCO5)cc(-c5ccc(F)cc5)c4=O)cc3)c2)cc1OC (racemic) [Example 6, N-{4-[2-Amino-5-(3,4-dimethoxyphenyl)pyridin-3-yl]phenyl}-5-(4-fluorophenyl)-4-oxo-1-[2-(tetrahydro-2H-pyran-2-yloxy)ethyl]-1,4-dihydropyridine-3-carboxamide] | 1 to 10 nM | 100 to 500 nM
2 | COc1ccc(-c2cnc(N)c(-c3ccc(NC(=O)c4c[nH]cc(-c5ccc(F)cc5)c4=O)cc3)c2)cc1OC [Example 1, N-{4-[2-Amino-5-(3,4-dimethoxyphenyl)pyridin-3-yl]phenyl}-5-(4-fluorophenyl)-4-oxo-1,4-dihydropyridine-3-carboxamide] | 1 to 10 nM | 50 to 100 nM
3 | COc1ccc(-c2cnc(N)c(-c3ccc(NC(=O)c4cn(CCO)cc(-c5ccc(F)cc5)c4=O)cc3)c2)cc1OC [Example 7, N-{4-[2-Amino-5-(3,4-dimethoxyphenyl)pyridin-3-yl]phenyl}-5-(4-fluorophenyl)-1-(2-hydroxyethyl)-4-oxo-1,4-dihydropyridine-3-carboxamide] | 1 to 10 nM | 50 to 100 nM
4 | COc1ccc(-c2cnc(N)c(-c3ccc(NC(=O)c4cn(C[C@H]5COCCO5)cc(-c5ccc(F)cc5)c4=O)cc3)c2)cc1OC [Example 14, N-{4-[2-Amino-5-(3,4-dimethoxyphenyl)pyridin-3-yl]phenyl}-1-[(2S)-1,4-dioxan-2-ylmethyl]-5-(4-fluorophenyl)-4-oxo-1,4-dihydropyridine-3-carboxamide] | 1 to 10 nM | 50 to 100 nM
5 | CCn1cc(C(=O)Nc2ccc(-c3cc(-c4ccc(OC)c(OC)c4)cnc3N)cc2)c(=O)c(-c2ccccc2)c1 [Example 18, N-{4-[2-Amino-5-(3,4-dimethoxyphenyl)pyridin-3-yl]phenyl}-1-ethyl-4-oxo-5-phenyl-1,4-dihydropyridine-3-carboxamide] | 1 to 10 nM | 50 to 100 nM
6 | COc1ccc(-c2cnc(N)c(-c3ccc(NC(=O)c4cn(CC(F)(F)F)cc(-c5cccc(F)c5)c4=O)cc3)c2)cc1OC [Example 22, N-{4-[2-Amino-5-(3,4-dimethoxyphenyl)pyridin-3-yl]phenyl}-5-(3-fluorophenyl)-4-oxo-1-(2,2,2-trifluoroethyl)-1,4-dihydropyridine-3-carboxamide] | 1 to 10 nM | 50 to 100 nM
7 | COc1ccc(-c2cnc(N)c(-c3ccc(NC(=O)c4cn(CC(F)(F)F)cc(-c5ccc(F)cc5)c4=O)cc3C)c2)cc1OC [Example 30, N-{4-[2-Amino-5-(3,4-dimethoxyphenyl)pyridin-3-yl]-3-methylphenyl}-5-(4-fluorophenyl)-4-oxo-1-(2,2,2-trifluoroethyl)-1,4-dihydropyridine-3-carboxamide] | 1 to 10 nM | 50 to 100 nM
8 | Nc1ncc(-c2ccccc2)cc1-c1ccc(NC(=O)c2cn(CC(F)(F)F)cc(-c3ccc(F)cc3)c2=O)cc1 [Example 31, N-[4-(2-Amino-5-phenylpyridin-3-yl)phenyl]-5-(4-fluorophenyl)-4-oxo-1-(2,2,2-trifluoroethyl)-1,4-dihydropyridine-3-carboxamide] | 1 to 10 nM | 100 to 500 nM
9 | COc1ccc(-c2cnc(N)c(-c3ccc(NC(=O)c4cn(CC(F)(F)F)cc(-c5ccc(F)cc5)c4=O)cc3)c2)cc1 [Example 32, N-{4-[2-Amino-5-(4-methoxyphenyl)pyridin-3-yl]phenyl}-5-(4-fluorophenyl)-4-oxo-1-(2,2,2-trifluoroethyl)-1,4-dihydropyridine-3-carboxamide] | 10 to 20 nM | 100 to 500 nM
10 | COc1cccc(-c2cnc(N)c(-c3ccc(NC(=O)c4cn(CC(F)(F)F)cc(-c5ccc(F)cc5)c4=O)cc3)c2)c1 [Example 33, N-{4-[2-Amino-5-(3-methoxyphenyl)pyridin-3-yl]phenyl}-5-(4-fluorophenyl)-4-oxo-1-(2,2,2-trifluoroethyl)-1,4-dihydropyridine-3-carboxamide] | 1 to 10 nM | 50 to 100 nM
11 | Cc1ccc(-c2cnc(N)c(-c3ccc(NC(=O)c4cn(CC(F)(F)F)cc(-c5ccc(F)cc5)c4=O)cc3)c2)cc1 [Example 35, N-{4-[2-Amino-5-(4-methylphenyl)pyridin-3-yl]phenyl}-5-(4-fluorophenyl)-4-oxo-1-(2,2,2-trifluoroethyl)-1,4-dihydropyridine-3-carboxamide] | 10 to 20 nM | 100 to 500 nM
12 | Nc1ncc(-c2cccc(Cl)c2)cc1-c1ccc(NC(=O)c2cn(CC(F)(F)F)cc(-c3ccc(F)cc3)c2=O)cc1 [Example 36, N-{4-[2-Amino-5-(3-chlorophenyl)pyridin-3-yl]phenyl}-5-(4-fluorophenyl)-4-oxo-1-(2,2,2-trifluoroethyl)-1,4-dihydropyridine-3-carboxamide] | 10 to 20 nM | 100 to 500 nM
13 | CC(C)(O)Cn1cc(C(=O)Nc2ccc(-c3cc(-c4cnn(C[C@H]5COCCO5)c4)cnc3N)cc2)c(=O)c(-c2ccc(F)cc2)c1 [Example 68, N-[4-(2-Amino-5-{1-[(2S)-1,4-dioxan-2-ylmethyl]-1H-pyrazol-4-yl}pyridin-3-yl)phenyl]-5-(4-fluorophenyl)-1-(2-hydroxy-2-methylpropyl)-4-oxo-1,4-dihydropyridine-3-carboxamide] | 10 to 20 nM | 100 to 500 nM
14 | CCN(CC)CCn1cc(C(=O)Nc2ccc(-c3cc(-c4cnn(C[C@H]5COCCO5)c4)cnc3N)cc2)c(=O)c(-c2ccc(F)cc2)c1 [Example 69, N-[4-(2-Amino-5-{1-[(2S)-1,4-dioxan-2-ylmethyl]-1H-pyrazol-4-yl}pyridin-3-yl)phenyl]-1-[2-(diethylamino)ethyl]-5-(4-fluorophenyl)-4-oxo-1,4-dihydropyridine-3-carboxamide] | 1 to 10 nM | 100 to 500 nM
15 | COC1CN(C(=O)c2cn(Cc3ccc(F)cc3)cc(C(=O)Nc3ccc(-c4cc(-c5cnn(C[C@H]6COCCO6)c5)cnc4N)cc3)c2=O)C1 [Example 72, N-[4-(2-Amino-5-{1-[(2S)-1,4-dioxan-2-ylmethyl]-1H-pyrazol-4-yl}pyridin-3-yl)phenyl]-1-(4-fluorobenzyl)-5-[(3-methoxyazetidin-1-yl)carbonyl]-4-oxo-1,4-dihydropyridine-3-carboxamide] | 1 to 10 nM | 50 to 100 nM
16 | CN1CC=C(c2cnc(N)c(-c3ccc(NC(=O)c4cn(CC(F)(F)F)cc(-c5ccc(F)cc5)c4=O)cc3)c2)CC1 [Example 79, N-[4-(6-Amino-1′-methyl-1′,2′,3′,6′-tetrahydro-3,4′-bipyridin-5-yl)phenyl]-5-(4-fluorophenyl)-4-oxo-1-(2,2,2-trifluoroethyl)-1,4-dihydropyridine-3-carboxamide] | 1 to 10 nM | 50 to 100 nM
